Where “and” joins values, the source holds several entries; their conditions need not be identical. Identical values can stand only once. Like-named read-outs stand apart in the source and are kept apart here. Marks after values point to notes of the source that are not given here.
Legend:
[1] = test system: Adult male Wistar rats; test: Conditioned Avoidance Response test; assay type: in vivo, rat
Source text: Adult male Wistar rats are used.
The Conditioned Avoidance Response (CAR) Test is an animal model screening for antipsychotic drugs.

[2] = test system: Adult male Sprague Dawley rats; test: Headshake response; assay type: in vivo, rat
Protocol: Example 9—Headshake Response
Adult male Sprague Dawley rats are used. […] DOI (3 mg/kg) is dissolved in saline and administered IP at a dose volume of 1 ml/kg (10 minutes prior to test).
The headshake response is a rapid, rhythmic shaking of the head in a radial motion. Data are analyzed by ANOVA followed by post hoc analysis where appropriate.

[3] = molecular target: T1, human Serotonin 5-HT7A receptor (Homo sapiens, UniProt P34969); test: Radioligand binding competition, filtration binding assay, 5-HT7A; conditions: for Ki: CHO-K1 membranes
T1 construct: expressed in transfected cells; host or cells: CHO-K1
T1 sequence (P34969 1-445 isoform P34969-2): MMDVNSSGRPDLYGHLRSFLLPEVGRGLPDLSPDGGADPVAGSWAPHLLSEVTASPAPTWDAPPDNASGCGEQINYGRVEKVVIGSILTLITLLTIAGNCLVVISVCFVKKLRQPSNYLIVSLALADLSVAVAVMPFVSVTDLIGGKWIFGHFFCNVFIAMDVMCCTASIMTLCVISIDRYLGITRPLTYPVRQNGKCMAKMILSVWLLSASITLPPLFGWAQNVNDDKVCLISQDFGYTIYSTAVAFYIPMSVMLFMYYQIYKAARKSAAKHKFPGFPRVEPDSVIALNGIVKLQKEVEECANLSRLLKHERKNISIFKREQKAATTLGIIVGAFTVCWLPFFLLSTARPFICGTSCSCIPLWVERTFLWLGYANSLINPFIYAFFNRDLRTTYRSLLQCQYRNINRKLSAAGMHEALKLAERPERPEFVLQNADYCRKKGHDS
Protocol: Radioligand binding experiments are conducted with membrane preparations.

[4] = molecular target: T2, human Serotonin 5-HT2A receptor (Homo sapiens, UniProt P28223); test: IPOne HTRF assay, agonist mode, 5-HT2A; assay type: cell-based; conditions: for Top % Activation at maximal concentration, 5-HT2A (agonist mode): % of reference agonist at EC100, average where marked d
T2 construct: expressed in transfected cells; host or cells: CHO-K1
T2 sequence (P28223 whole entry): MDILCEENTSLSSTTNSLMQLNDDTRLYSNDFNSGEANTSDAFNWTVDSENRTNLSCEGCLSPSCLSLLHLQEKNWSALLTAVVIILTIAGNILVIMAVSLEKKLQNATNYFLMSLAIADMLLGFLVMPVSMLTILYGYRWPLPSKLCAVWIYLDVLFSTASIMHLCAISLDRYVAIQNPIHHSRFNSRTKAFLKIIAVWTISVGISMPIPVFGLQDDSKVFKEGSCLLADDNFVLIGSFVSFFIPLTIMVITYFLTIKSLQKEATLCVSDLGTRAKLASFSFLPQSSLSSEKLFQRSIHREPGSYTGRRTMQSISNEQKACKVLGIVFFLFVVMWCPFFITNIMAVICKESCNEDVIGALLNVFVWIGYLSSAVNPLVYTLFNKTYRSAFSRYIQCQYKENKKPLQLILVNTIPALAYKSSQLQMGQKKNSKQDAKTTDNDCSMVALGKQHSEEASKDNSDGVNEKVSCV
Protocol: (§1) SPA ^35S-GTPgS experiments are conducted with membrane preparations. IP-One and cAMP HTRF assays are conducted with recombinant cell lines.
(§2) Agonist activity of test compounds is expressed as a percentage of the activity of the reference agonist at its EC100 concentration. Antagonist activity of the test compound is expressed as a percentage of the inhibition of reference agonist activity at its EC80 concentration.

[5] = molecular target: human Dopamine D2S receptor (Homo sapiens, UniProt P14416)
human Dopamine D2S receptor, sequence (P14416 1-414 isoform P14416-2): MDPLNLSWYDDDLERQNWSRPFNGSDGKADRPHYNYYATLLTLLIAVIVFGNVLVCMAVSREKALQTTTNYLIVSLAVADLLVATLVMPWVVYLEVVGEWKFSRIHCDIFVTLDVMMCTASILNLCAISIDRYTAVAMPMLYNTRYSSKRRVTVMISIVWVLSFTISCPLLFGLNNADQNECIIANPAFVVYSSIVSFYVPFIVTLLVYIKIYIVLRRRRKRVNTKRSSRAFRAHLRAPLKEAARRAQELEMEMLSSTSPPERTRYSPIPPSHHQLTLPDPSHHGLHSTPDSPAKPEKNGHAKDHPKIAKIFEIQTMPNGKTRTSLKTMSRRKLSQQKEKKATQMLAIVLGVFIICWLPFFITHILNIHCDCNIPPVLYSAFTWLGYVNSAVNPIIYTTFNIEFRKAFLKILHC
Protocol: as §1, §2

[6] = test system: Male Sprague Dawley rats; test: Touchscreen-based rat Probabilistic Reward Task; assay type: in vivo; conditions: 1 mg/kg orally, 4-5 hr prior to session
Source text: Example 7—Touchscreen-Based Rat Probabilistic Reward Task
The Probabilistic Reward Task (PRT) uses visual discrimination methodology to quantify reward responsiveness to both identify deficits and characterize drug-induced improvements. Groups of rats are trained on the touchscreen-based PRT and exposed to asymmetrical probabilistic contingencies to generate response biases to the richly rewarded stimulus (Pizzagalli, D. et al., Biological Psychiatry, 2005, 57, 319-327; Kangas, B. et al., Translational Psychiatry, 2020, 10(1):285; Wooldridge, L. et al., International Journal of Neuropsychopharmacology, 2021, 24, 409-418).
Male Sprague Dawley rats are used in the present study.
Briefly, a custom-built Plexiglas chamber (25×30×35 cm) is situated in a sound- and light-attenuating enclosure (40×60×45 cm). A 17″ touch-sensitive screen (1739L, ELO TouchSystems, Menlo Park, CA) comprises the inside right-hand wall of the enclosure. An infusion pump (PHM-100-5, Med Associates, St. Albans, VT) outside the enclosure is used to deliver sweetened condensed milk solution into the shallow reservoir of a custom-designed aluminum receptacle. […]
Following line-length discrimination training, probabilistic reinforcement schedules are introduced. […] These probabilistic contingencies are assessed across 5 consecutive sessions prior to initiation of drug testing.

[7] = molecular target: human Dopamine D3 receptor (Homo sapiens, UniProt P35462); conditions: GTPγS; average where marked d
human Dopamine D3 receptor, sequence (P35462 whole entry): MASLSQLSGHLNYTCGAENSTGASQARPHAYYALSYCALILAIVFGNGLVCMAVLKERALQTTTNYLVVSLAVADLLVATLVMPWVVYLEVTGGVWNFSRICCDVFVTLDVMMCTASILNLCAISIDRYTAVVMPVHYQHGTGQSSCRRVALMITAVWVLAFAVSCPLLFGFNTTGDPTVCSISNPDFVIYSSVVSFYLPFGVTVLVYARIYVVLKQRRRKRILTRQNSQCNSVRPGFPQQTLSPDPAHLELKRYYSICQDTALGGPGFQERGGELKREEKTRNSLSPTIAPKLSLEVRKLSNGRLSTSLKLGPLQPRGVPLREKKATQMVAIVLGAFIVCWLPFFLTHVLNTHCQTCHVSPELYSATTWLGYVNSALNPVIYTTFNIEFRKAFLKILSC
Protocol: as §1, §2

[8] = molecular target: T1, human Serotonin 5-HT7A receptor; test: cAMP HTRF assay, antagonist mode, 5-HT7A; assay type: cell-based
[9] = test system: Adult male Sprague Dawley rats; test: DOI-induced headshake response; assay type: in vivo, rat
Protocol: Example 10—DOI-Induced Headshake Response
Adult male Sprague Dawley rats are used. […] DOI (3 mg/kg) is dissolved in saline and administered IP at a dose volume of 1 ml/kg (10 minutes prior to test). Ketanserin (1 mg/kg) is dissolved in saline and injected IP 30 minutes prior to DOI at a dose volume of […].
Rats are then injected with DOI and headshakes are recorded 10 minutes after DOI injection for 10 minutes using video cameras. The headshake response is a rapid, rhythmic shaking of the head in a radial motion. Data is analyzed by ANOVA followed by post hoc analysis where appropriate.

[10] = In vitro metabolism, disappearance in pooled cryopreserved human hepatocytes; assay type: in vitro ADME; conditions: 5 μM; for Disappearance without cells (buffer), 0 min, % / Disappearance without cells (buffer), 60 min, % / Disappearance without cells (buffer), 120 min, %: no cell control / buffer; for Disappearance in human hepatocytes, 0 min, % / Disappearance in human hepatocytes, 60 min, % / Disappearance in human hepatocytes, 120 min, %: with cells
Protocol: Study compounds are investigated in pooled cryopreserved human (mixed gender) hepatocytes. The incubations are performed using 5 μM initial concentration and sampling at 0, 60, and 120 minute time points. The samples are analyzed using UPLC-QE-orbitrap-MS. Incubation volume: 300 μl in 48-well plate. Number of cells: 1 million viable cells/ml. Test compound: 5 μM (stock solution in DMSO). Incubation medium: pH 7.4, Bioreclamation IVT in vitro KHB medium. Shaking: 600 rpm. Time points: 0, 60, and 120 minutes with and without cells. Temperature: 37° C. Sampling volume: 60 μl. DMSO content in incubation: 0.5%. […] Control: verapamil disappearance rate.
Sample preparation for hepatocyte samples: Samples are centrifuged for 20 min at 2272×g at room temperature and pipetted to a UPLC-plate for analysis.

[11] = molecular target: T3, human Dopamine D4.4 receptor (Homo sapiens, UniProt P21917); conditions: cAMP; average where marked d
T3 sequence (P21917 1-419): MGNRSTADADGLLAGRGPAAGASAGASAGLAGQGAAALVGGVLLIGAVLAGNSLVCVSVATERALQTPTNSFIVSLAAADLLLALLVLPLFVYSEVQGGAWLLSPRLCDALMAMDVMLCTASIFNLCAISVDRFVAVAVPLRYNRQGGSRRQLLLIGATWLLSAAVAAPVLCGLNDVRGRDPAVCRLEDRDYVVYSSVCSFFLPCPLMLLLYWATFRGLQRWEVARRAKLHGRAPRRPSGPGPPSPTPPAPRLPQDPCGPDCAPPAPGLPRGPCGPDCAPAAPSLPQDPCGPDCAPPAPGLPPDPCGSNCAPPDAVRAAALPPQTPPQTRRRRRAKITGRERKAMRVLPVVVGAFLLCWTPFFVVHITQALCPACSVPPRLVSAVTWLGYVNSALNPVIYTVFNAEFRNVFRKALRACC
Protocol: as §1, §2

[12] = molecular target: T4, human Serotonin 5-HT1A receptor (Homo sapiens, UniProt P08908); test: cAMP HTRF assay, agonist mode, 5-HT1A; assay type: cell-based; conditions: % of reference agonist at EC100, average where marked d
T4 sequence (P08908 1-422): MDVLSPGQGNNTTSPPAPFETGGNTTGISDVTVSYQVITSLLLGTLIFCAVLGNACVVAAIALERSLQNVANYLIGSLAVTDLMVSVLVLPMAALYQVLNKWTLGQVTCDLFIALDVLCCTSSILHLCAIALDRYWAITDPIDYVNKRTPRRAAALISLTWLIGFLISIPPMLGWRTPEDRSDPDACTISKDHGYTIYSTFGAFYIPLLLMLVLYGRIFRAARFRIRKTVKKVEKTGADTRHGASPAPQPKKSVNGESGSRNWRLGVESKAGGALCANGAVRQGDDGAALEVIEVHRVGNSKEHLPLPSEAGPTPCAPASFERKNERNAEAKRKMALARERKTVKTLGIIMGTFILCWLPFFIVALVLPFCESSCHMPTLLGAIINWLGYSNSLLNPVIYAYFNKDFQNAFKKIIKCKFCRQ
Protocol: as §1, §2

[13] = molecular target: T2, human Serotonin 5-HT2A receptor; test: Radioligand binding competition, filtration binding assay, 5-HT2A (labeled ketanserin)
[14] = molecular target: T2, human Serotonin 5-HT2A receptor; test: IPOne HTRF assay, antagonist mode, 5-HT2A; assay type: cell-based; conditions: IP-one
Protocol: IP-One and cAMP HTRF assays are conducted with recombinant cell lines.
as §2

[15] = 2.5 and 5 mg/kg orally, 4 hours prior to test
[16] = [3H]-LSD, average where marked c, read-out: Binding 5-HT7A IC50
[17] = numbers in parentheses that were averaged, read-out: Binding 5-HT7A IC50, single determinations
[18] = 0.5 mg/kg i.p., 30 minutes prior to test

[2H]C([2H])([2H])Nc1cc(OC)c(C(=O)N[C@@H]2CCN(C([2H])([2H])c3ccccc3)[C@@H]2C)cc1Cl [Example 1, 5-Chloro-N-((2R,3R)-1-(dideutero(phenyl)methyl)-2-methylpyrrolidin-3-yl)-2-methoxy-4-(trideuteromethylamino)benzamide]
Escape failures compared to vehicle ([1]; 0.5, 2.5 and 5 mg/kg orally, 4 hours prior to test): None of the doses of the deuterated compound of Example 1 (A2) have a significant treatment effect | Number of avoidance responses compared to vehicle [1, 15]: significantly decrease | Percent avoidance compared to vehicle [1, 15]: significantly decrease | Number of headshakes compared to vehicle ([2]; 1, 5 and 10 mg/kg PO, 4 hours prior to test): no significant increase | Ki ([3]; [3H]-LSD): 82.6 nM | IC50 [3, 16]: 131 nM | IC50 [3, 17]: 143 nM and 118 nM | Top % Activation at maximal concentration, 5-HT2A (agonist mode) ([4]; IP-one): 69^d % | Top % Activation, 5-HT2A (agonist mode), single determinations ([4]; IP-one, numbers in parentheses that were averaged, listed as Ex. 1 (A2)): 53% and 82% and 68% and 72% | 5-HT2A agonism (in words) ([4]; compared with non-deuterated analog / summary of Tables 4 and 5): 5-HT2A partial agonist and higher 5-HT2A agonism | Top % Inhibition, D2S (antagonist mode), single determinations [5]: 93) % | Top % Inhibition, D2S (antagonist mode), single determinations ([5]; cAMP, numbers in parentheses that were averaged): (104, % | Reward response bias (log b) [6]: enhances reward response bias (log b) significantly | Top % Inhibition at maximal concentration, D3 (antagonist mode) [7]: 122^d % | IC50 [8]: > 3000 nM | DOI-induced headshake responses ([9]; 1, 5 and 10 mg/kg PO, 4 hours prior, DOI 3 mg/kg IP): significantly attenuate DOI-induced headshake responses | Disappearance without cells (buffer), 0 min, % [10]: 100% | Disappearance without cells (buffer), 60 min, % [10]: 91% | Disappearance without cells (buffer), 120 min, % [10]: 92% | Disappearance in human hepatocytes, 0 min, % [10]: 100% | Disappearance in human hepatocytes, 60 min, % [10]: 8% | Disappearance in human hepatocytes, 120 min, % [10]: 1% | Top % Inhibition at maximal concentration, D4 (antagonist mode) [11]: 100^d % | Top % Activation at maximal concentration, 5-HT1A (agonist mode) [12]: 64^d %

CNc1cc(OC)c(C(=O)N[C@@H]2CCN(Cc3ccccc3)[C@@H]2C)cc1Cl [cis (R,R) nemonapride, N-[(2R,3R)-1-benzyl-2-methylpyrrolidin-3-yl]-5-chloro-2-methoxy-4-(methylamino)benzamide, reference compound]
Ki ([3]; [3H]-LSD): 102 nM | IC50 [3, 16]: 129 nM | IC50 [3, 17]: 112 nM and 145 nM | Top % Activation at maximal concentration, 5-HT2A (agonist mode) ([4]; IP-one): 44^d % | Top % Inhibition at maximal concentration, D3 (antagonist mode) [7]: 99^d % | IC50 [8]: 2470 nM | Disappearance without cells (buffer), 0 min, % [10]: 100% | Disappearance without cells (buffer), 60 min, % [10]: 96% | Disappearance without cells (buffer), 120 min, % [10]: 99% | Disappearance in human hepatocytes, 0 min, % [10]: 100% | Disappearance in human hepatocytes, 60 min, % [10]: 10% | Disappearance in human hepatocytes, 120 min, % [10]: 2% | Top % Inhibition at maximal concentration, D4 (antagonist mode) [11]: 111^d % | Top % Activation at maximal concentration, 5-HT1A (agonist mode) [12]: 78^d %

Cc1nc2n(c(=O)c1CCN1CCC(c3noc4cc(F)ccc34)CC1)CCCC2 [risperidone, reference compound]
Number of avoidance responses compared to vehicle [1, 18]: significantly decrease | Percent avoidance compared to vehicle [1, 18]: significantly decrease

COc1cc(CC(C)N)c(OC)cc1I (stereo not drawn) [DOI, reference compound]
Number of headshakes compared to vehicle ([2]; 3 mg/kg i.p., 10 minutes prior to test): significantly increases headshake responses | Number of headshakes compared to vehicle ([9]; DOI 3 mg/kg IP, 10 minutes prior to test): significantly increases the number of headshakes

CCN1CCC[C@H]1CNC(=O)c1c(OC)ccc(Br)c1OC [S-remoxipride]
Binding to the 5-HT2A receptor in vitro (in words) [13]: do not even bind

CCN1CCC[C@@H]1CNC(=O)c1c(OC)ccc(Br)c1OC [R-remoxipride]
Binding to the 5-HT2A receptor in vitro (in words) [13]: do not even bind

CNc1cc(OC)c(C(=O)N[C@H]2CCN(Cc3ccccc3)[C@H]2C)cc1Cl (racemic) [Nemonapride, (±)-cis-N-(1-Benzyl-2-methylpyrrolidin-3-yl)-5-chloro-2-methoxy-4-methylaminobenzamide]
Top % Inhibition at maximal concentration, 5-HT2A (antagonist mode) [14]: 33% | Ki ([3]; [3H]-LSD): 53.2 nM | IC50 [3, 16]: 75.7 nM | Top % Activation at maximal concentration, 5-HT2A (agonist mode) ([4]; IP-one): 48% | Top % Inhibition at maximal concentration, D3 (antagonist mode) [7]: 126% | Top % Activation at maximal concentration, 5-HT1A (agonist mode) [12]: 52%

O=C(c1ccc(F)cc1)C1CCN(CCn2c(=O)[nH]c3ccccc3c2=O)CC1 [Ketanserin]
DOI-induced headshake responses ([9]; 1 mg/kg IP, 30 minutes prior to DOI 3 mg/kg IP): significantly attenuate DOI-induced headshake responses

Reference: patent US20250091990A1, “DEUTERATED ORGANIC COMPOUNDS AND USES THEREOF” (ENGRAIL THERAPEUTICS, INC., priority 2022, published 2025)
